Test results taken from article PMC7582602, “Beyond the Canonical Endocannabinoid System. A Screening of PPAR Ligands as FAAH Inhibitors” (International Journal of Molecular Sciences, 2020).
Read-outs that look alike come from different tables or passages of the source.

What was measured:
human PPARα [1] = biological target: T1, human PPARα (Homo sapiens, UniProt Q07869); experiment: GAL4-PPARα-LBD transactivation (luciferase) assay in HepG2 cells; conditions: for Emax: HepG2, read-out: PPARα Emax
T1 sequence (Q07869 239-466 limits assumed): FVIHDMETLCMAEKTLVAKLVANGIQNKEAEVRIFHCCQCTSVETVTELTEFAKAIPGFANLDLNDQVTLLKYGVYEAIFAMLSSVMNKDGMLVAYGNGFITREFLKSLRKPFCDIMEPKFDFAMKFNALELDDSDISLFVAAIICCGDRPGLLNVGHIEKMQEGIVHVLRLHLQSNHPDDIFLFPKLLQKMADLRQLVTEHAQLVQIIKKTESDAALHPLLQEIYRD
Protocol: (§1) Transactivation assays were conducted seeding 10^5 cells/well in a 24-well plate. The cells were transfected after 24 h with the calcium phosphate method CAPHOS®, following the manufacturer’s guidelines. Plasmids encoding the fusion proteins GAL4-PPARa-LBD, GAL4-PPARg-LBD, GAL4-PPARd-LBD or GAL4-FXR-LBD (30 ng), pGAL5TKpGL3 (100 ng), and pCMVbgal (250 ng) were used. Treatment of the cells with the investigated compounds was carried out 4 h after transfection, in triplicate, and the cells were incubated in the treated medium for additional 20 h. Cells were then lysed and luciferase activity in the extract was determined via a VICTOR^3 V Multilabel Plate Reader, PerkinElmer).

human PPARγ [2] = biological target: T2, human PPARγ (Homo sapiens, UniProt P37231); experiment: GAL4-PPARγ-LBD transactivation (luciferase) assay in HepG2 cells; conditions: for Emax: HepG2, read-out: PPARγ Emax
T2 sequence (P37231 238-503 limits assumed): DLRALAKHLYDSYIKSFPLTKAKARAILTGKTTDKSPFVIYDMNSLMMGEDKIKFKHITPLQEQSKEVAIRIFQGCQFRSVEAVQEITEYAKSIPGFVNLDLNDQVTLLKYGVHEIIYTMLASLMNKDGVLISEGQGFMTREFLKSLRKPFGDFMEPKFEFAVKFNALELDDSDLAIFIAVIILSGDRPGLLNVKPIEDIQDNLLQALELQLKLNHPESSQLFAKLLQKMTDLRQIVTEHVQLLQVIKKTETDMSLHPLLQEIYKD
Protocol: as §1

FAAH Human recombinant = biological target: T3, FAAH Human recombinant (Homo sapiens, UniProt O00519); experiment: FAAH inhibition assay (fluorometric, AMC-AA substrate); format: biochemical; conditions: for IC50: human recombinant FAAH, mean ± SEM, i: inactive; for inhibition at 100 µM: read-out: FAAH % inhibition @ 100 μM
T3 construct: purchased Cayman Chemical
T3 sequence (O00519 1-579): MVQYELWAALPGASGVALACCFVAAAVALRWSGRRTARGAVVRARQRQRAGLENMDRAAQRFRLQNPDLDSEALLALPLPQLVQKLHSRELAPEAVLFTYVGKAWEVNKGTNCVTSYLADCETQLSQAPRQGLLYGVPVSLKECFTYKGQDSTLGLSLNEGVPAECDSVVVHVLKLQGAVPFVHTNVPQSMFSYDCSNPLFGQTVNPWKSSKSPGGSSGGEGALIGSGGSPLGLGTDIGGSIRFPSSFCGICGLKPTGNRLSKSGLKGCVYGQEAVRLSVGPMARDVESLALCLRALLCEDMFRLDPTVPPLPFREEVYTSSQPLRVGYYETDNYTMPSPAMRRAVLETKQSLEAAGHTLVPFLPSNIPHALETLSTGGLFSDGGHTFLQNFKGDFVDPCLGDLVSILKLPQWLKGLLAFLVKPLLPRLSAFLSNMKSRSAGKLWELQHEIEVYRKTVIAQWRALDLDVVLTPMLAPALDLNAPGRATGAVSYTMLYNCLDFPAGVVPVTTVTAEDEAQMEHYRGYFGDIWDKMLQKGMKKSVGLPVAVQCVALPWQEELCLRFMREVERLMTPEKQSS
Protocol: Briefly, 96-well black flat-bottom microtiter NBS plates (COSTAR flat black) were utilized to perform the assays (in triplicate).
Control wells lacking the inhibitor and blank wells lacking both inhibitor and enzyme were used to calculate percent inhibition for each tested compound. IC50 values were calculated via GraphPad Prism 5.0 (GraphPad Software, La Jolla, CA, USA) and are reported as mean ± SEM of at least two independent measurements performed in triplicate.

human PPARα [3] = biological target: T1, human PPARα; conditions: previously reported compound; cited from earlier work
human PPARγ [4] = biological target: T2, human PPARγ; conditions: previously reported compound; cited from earlier work
LogD = format: physicochemical; conditions: called measured LogD values
FAAH = system: FAAH; design: method as in PMID 23240907; conditions: literature value for carprofen; cited from earlier work

SMILES	IC50 (FAAH Human recombinant)	inhibition at 100 µM (FAAH Human recombinant)	PPARα Emax (human PPARα [3])	PPARγ Emax (human PPARγ [4])	other results
O=C(/C=C/c1ccc(O)c(O)c1)O[C@H](Cc1ccc(O)c(O)c1)C(=O)O [Compound 4, Rosmarinic acid]	~100 µM	62%			activity on PPARα (in words) (human PPARα [1]): did not find any activity; activity on PPARγ (in words) (human PPARγ [2]): did not find any activity
CC(Oc1ccc(Cc2ccc(OCc3coc(-c4ccccc4)n3)cc2)cc1)C(=O)O (centres unmarked) [Compound 17]	> 100 µM		47 ± 13	26 ± 3	
O=C(C=Cc1ccc(O)c(O)c1)N[C@@H](Cc1ccccc1)C(=O)O [Compound 33]	12.6 ± 3.1 µM				melting point: 198 to 199 °C
O=C(/C=C/c1ccccc1)O[C@@H](Cc1ccccc1)C(=O)O [(S)-28]	> 100 µM				Emax (human PPARα [1]): 34 ± 8%; Emax (human PPARγ [2]): 9 ± 6%
CC(Oc1ccc(Cc2ccccc2)cc1)C(=O)O (racemic) [Compound 13, (R,S)-2-(4-benzyl)-phenoxypropanoic acid]	> 100 µM	30%			EC50 (human PPARα [1]): 4.6 ± 1.8 µM; Emax (human PPARα [1]): 116 ± 1%; melting point: 102 to 104 °C
CCCCCCCN(CCc1ccc(O[C@H](C)C(=O)O)cc1)c1nc2ccccc2o1 [Compound 26]	> 100 µM	35%	93 ± 6%	59 ± 2%	
O=C(O)C(Cc1ccccc1)Oc1ccc(NCc2ccccc2)cc1 (centres unmarked) [Compound 20]	> 100 µM	39.2%	78 ± 4%	27 ± 6%	
O=C(O)C(Cc1ccccc1)Oc1ccc(/C=C\c2ccccc2)cc1 (centres unmarked) [Compound 19]	> 100 µM	30.5%			
CC(Oc1ccc(CCc2ccccc2)cc1)C(=O)O (racemic) [Compound 16]	> 100 µM	32.2%			EC50 (human PPARα [1]): 17.6 ± 3 µM; Emax (human PPARα [1]): 116 ± 1%; melting point: 106 to 107 °C; EC50 (human PPARγ [2]): 24 ± 6 µM; Emax (human PPARγ [2]): 18 ± 7%
O=C(Oc1ccc([N+](=O)[O-])cc1)N1CCN(Cc2cccc(Oc3ccccc3)c2)CC1 [JZL195, reference compound]	0.019 ± 0.003 µM				
O=C(O)C(Cc1ccccc1)Oc1ccc(Cc2ccccc2)cc1 (centres unmarked) [Compound 14]	> 100 µM		115 ± 27%	42 ± 1%	logD (LogD): 2.62; activity on FAAH (in words) (FAAH Human recombinant): completely inactive
O=C(O)COc1ccc(CCc2ccccc2)cc1 [Compound 15, 4-phenethyl-phenoxyacetic acid]	~100 µM	63%			melting point: 130 to 131 °C
CCCCCCCN(CCc1ccc(O[C@@H](C)C(=O)O)cc1)c1nc2ccccc2o1 [Compound 25]	~100 µM	45.1%	78 ± 4%	32 ± 5%	
CCCc1c(OCCCOc2ccc(OCC(=O)O)cc2)ccc(C(C)=O)c1O [Compound 3, L165,041, reference compound]	> 100 µM	40%			activity on FAAH (in words) (FAAH Human recombinant): little to no activity
CC(C(=O)O)c1ccc2c(c1)[nH]c1ccc(Cl)cc12 (centres unmarked) [carprofen]					IC50 (FAAH): 79 ± 20 µM
CCCCCCCN(CCc1ccc(OCC(=O)O)cc1)c1nc2ccccc2o1 [Compound 8]	30.5 ± 12.6 µM		87 ± 7%	37 ± 11%	EC50 (human PPARα [3]): 0.12 ± 0.16 µM; EC50 (human PPARγ [4]): 0.83 ± 0.75 µM
Cc1cccc(Nc2cc(Cl)nc(SCC(=O)O)n2)c1C [Compound 2, Wy 14,643, reference compound]	> 100 µM				activity on FAAH (in words) (FAAH Human recombinant): little to no activity
COc1ccc(C=CC(=O)N[C@@H](Cc2ccc(O)cc2)C(=O)O)cc1OC [Compound 35, (S)-2-(3-(3,4-dimethoxyphenyl)acrylamido)-3-(4-hydroxyphenyl)propanoic acid]					melting point: 105 to 108.5 °C
Oc1ccc(/C=C/c2cc(O)cc(O)c2)cc1 [Compound 12, resveratrol]	26.1 ± 11.4 µM				
O=C(O)COc1ccc(Cc2ccccc2)cc1 [Compound 5, 4-benzyl-phenoxyacetic acid]	40.2 ± 17.7 µM				EC50 (human PPARα [1]): 24 ± 5 µM; Emax (human PPARα [1]): 34 ± 8%; melting point: 117 to 118 °C; logD (LogD): 0.27; EC50 (human PPARγ [2]): 33 ± 23 µM; Emax (human PPARγ [2]): 9 ± 6%
O=C(O)C(Cc1ccccc1)Oc1ccc(/C=C/c2ccccc2)cc1 (centres unmarked) [Compound 18]	24 ± 2.5 µM				
O=C(Cc1ccccc1)c1ccc(O[C@@H](Cc2ccccc2)C(=O)O)cc1 [Compound 21]	> 100 µM	34%	106 ± 1%	40 ± 2%	EC50 (human PPARα [3]): 1.8 ± 1 µM; EC50 (human PPARγ [4]): 9.1 ± 0.9 µM
